Experimental data taken from patent publication US10722514B2 (FLX Bio, Inc., priority 2017, dated 2020).

target: T1, recombinant full-length USP7 (Homo sapiens, UniProt Q93009); test: USP7-mediated ubiquitin-rhodamine cleavage assay; format: biochemical; conditions: recombinant full-length USP7 62 pM; ubiquitin-rhodamine 100 nM; 30-minute incubation with compound, 1 hour reaction at room temperature; read-out: Potency: USP7 IC50
T1 construct: A 25 μl reaction volume containing recombinant full-length USP7 (62 pM)
T1 sequence (Q93009 whole entry): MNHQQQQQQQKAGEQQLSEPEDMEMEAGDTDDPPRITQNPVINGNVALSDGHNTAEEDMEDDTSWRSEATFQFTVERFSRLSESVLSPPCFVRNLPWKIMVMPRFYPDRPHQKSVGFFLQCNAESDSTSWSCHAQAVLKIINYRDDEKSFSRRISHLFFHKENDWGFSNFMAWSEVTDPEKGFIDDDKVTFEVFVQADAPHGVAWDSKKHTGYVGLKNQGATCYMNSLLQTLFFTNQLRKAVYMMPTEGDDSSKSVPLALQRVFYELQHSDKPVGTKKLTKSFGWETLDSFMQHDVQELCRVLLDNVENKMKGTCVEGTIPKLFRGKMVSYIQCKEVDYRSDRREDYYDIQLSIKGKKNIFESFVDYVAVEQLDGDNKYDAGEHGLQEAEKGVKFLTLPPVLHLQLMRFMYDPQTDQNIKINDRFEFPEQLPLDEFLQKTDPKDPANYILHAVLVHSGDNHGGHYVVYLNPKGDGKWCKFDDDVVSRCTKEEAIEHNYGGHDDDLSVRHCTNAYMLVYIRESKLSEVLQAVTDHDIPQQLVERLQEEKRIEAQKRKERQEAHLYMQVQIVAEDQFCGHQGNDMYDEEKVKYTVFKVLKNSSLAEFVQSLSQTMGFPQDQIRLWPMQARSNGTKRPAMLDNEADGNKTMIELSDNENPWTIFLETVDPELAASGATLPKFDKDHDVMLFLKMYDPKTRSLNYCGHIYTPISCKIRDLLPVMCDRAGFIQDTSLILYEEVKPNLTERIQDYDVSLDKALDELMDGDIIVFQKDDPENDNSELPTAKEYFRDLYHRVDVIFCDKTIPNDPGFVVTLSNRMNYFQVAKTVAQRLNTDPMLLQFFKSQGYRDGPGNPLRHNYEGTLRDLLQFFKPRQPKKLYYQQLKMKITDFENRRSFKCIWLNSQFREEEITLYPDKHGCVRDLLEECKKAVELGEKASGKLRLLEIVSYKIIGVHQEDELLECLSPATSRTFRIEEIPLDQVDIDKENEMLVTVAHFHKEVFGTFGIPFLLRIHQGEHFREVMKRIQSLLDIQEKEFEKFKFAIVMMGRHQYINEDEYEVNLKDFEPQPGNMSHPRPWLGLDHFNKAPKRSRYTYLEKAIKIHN
Procedure: In the case of the USP7 deubiquitylating enzyme, the IC50 of an USP7 inhibiting compound is the concentration of the compound that inhibits 50% of the activity observed in a USP7-mediated ubiquitin-rhodamine cleavage assay.
For the USP7 inhibitors disclosed herein, their potency was measured using the following test method.
A 25 μl reaction volume containing recombinant full-length USP7 (62 pM) in 20 mM HEPES pH 7.3, 150 mM NaCl, 1 mM TCEP, and 125 μg/ml BSA was assembled in wells of 384 well plates. Test compounds were dispensed with a Hewlett Packard D300 digital dispenser (1% final DMSO). Following a 30-minute incubation at room temperature, ubiquitin-rhodamine was added with the D300 to a final concentration of 100 nM and the reaction was allowed to proceed for 1 hour at room temperature protected from light. The reaction was stopped by the addition of 5 μl 1M acetic acid. Rhodamine fluorescence was measured using an Envision plate reader (Perkin Elmer) and IC50 values were determined by non-linear regression using a 4-parameter fit in a Dotmatics (Bishops Stortford, Hertfordshire, England) software package.

Structure (SMILES) | IC50
CCC(O)c1cc2nccc(-c3cc(Cl)cc(C)c3OCC3(C#N)CNC3)c2s1 (stereo not drawn) [Example 39, 3-((4-Chloro-2-(2-(1-hydroxypropyl)thieno[3,2-b]pyridin-7-yl)-6-methylphenoxy)methyl)azetidine-3-carbonitrile] | < 1000 nM
Cc1cc(Cl)cc(-c2ccnc3cc(CO)sc23)c1OC1CC2(CNC2)C1 [Example 48, (7-(2-((2-Azaspiro[3.3]heptan-6-yl)oxy)-5-chloro-3-methylphenyl)thieno[3,2-b]pyridin-2-yl)methanol] | 10000 to 30000 nM
CCC(O)c1cc2nccc(-c3cc(Cl)cc(C)c3OCC3(C)CNC3)c2s1 (stereo not drawn) [Example 33, 1-(7-(5-Chloro-3-methyl-2-((3-methylazetidin-3-yl)methoxy)phenyl)thieno[3,2-b]pyridin-2-yl)propan-1-ol] | 1000 to 10000 nM
Cc1cc(Cl)cc(-c2ccnc3c(F)c(CO)sc23)c1O[C@@H]1CNC[C@@H]1F [Example 156, (7-(5-Chloro-2-(((3R,4S)-4-fluoropyrrolidin-3-yl)oxy)-3-methylphenyl)-3-fluorothieno[3,2-b]pyridin-2-yl)methanol] | 1000 to 10000 nM
Cc1cc(Cl)cc(-c2ccnc3ccsc23)c1O[C@H]1CCCNC1 [Example 167, (S)-7-(5-Chloro-3-methyl-2-(piperidin-3-yloxy)phenyl)thieno[3,2-b]pyridine] | 10000 to 30000 nM
Cc1cc(Cl)cc(-c2ccnc3cc(CO)sc23)c1O[C@@H]1CNC[C@@H]1O [Example 78, (3S,4R)-4-(4-Chloro-2-(2-(hydroxymethyl)thieno[3,2-b]pyridin-7-yl)-6-methylphenoxy)pyrrolidin-3-ol] | 1000 to 10000 nM
Cc1cc(Cl)cc(-c2ccnc3ccsc23)c1O[C@H]1CCCN(C)C1 [Example 240, (S)-7-(5-Chloro-3-methyl-2-((1-methylpiperidin-3-yl)oxy)phenyl)thieno[3,2-b]pyridine] | > 30000 nM
Cc1cc(Cl)cc(-c2ncnc3cc(CN4C(=O)CC(C)C4=O)sc23)c1O[C@@H]1CNC[C@@H]1F (stereo partly drawn) [Example 378, 1-[[4-[5-chloro-2-[(3R,4S)-4-fluoropyrrolidin-3-yl]oxy-3-methyl-phenyl]thieno[3,2-d]pyrimidin-6-yl]methyl]-3-methyl-pyrrolidine-2,5-dione; 2,2,2-trifluoroacetic acid] | < 1000 nM
Cc1cc(Cl)cc(-c2ccnc3cc(CO)sc23)c1O[C@@H]1CN[C@H](C(C)(C)O)C1 [Example 72, 2-((2S,4S)-4-(4-Chloro-2-(2-(hydroxymethyl)thieno[3,2-b]pyridin-7-yl)-6-methylphenoxy)pyrrolidin-2-yl)propan-2-ol] | 1000 to 10000 nM

Other lines, results leading:

IC50 | Structure (SMILES)
< 1000 nM | Cc1cc(Cl)cc(-c2ccnc3cc(CN4C(=O)C5C(C4=O)C5(C)C)sc23)c1OC1CNCC1(C)C (stereo not drawn) [Example 369, 3-[[7-[5-chloro-2-(4,4-dimethylpyrrolidin-3-yl)oxy-3-methyl-phenyl]thieno[3.2-b]pyridin-2-yl]methyl]-6,6-dimethyl-3-azabicyclo[3.1.0]hexane-2,4-dione]
< 1000 nM | Cc1cc(Cl)cc(-c2ccnc3cc(CN4C(=O)C5CC5C4=O)sc23)c1O[C@@H]1CN(C)C[C@@H]1F (stereo partly drawn) [Example 314, 3-[[7-[5-chloro-2-[(3R,4S)-4-fluoro-1-methyl-pyrrolidin-3-yl]oxy-3-methyl-phenyl]thieno[3,2-b]pyridin-2-yl]methyl]-3-azabicyclo[3.1.0]hexane-2,4-dione]
< 1000 nM | Cc1cc(Cl)cc(-c2ccnc3cc(Cn4c(=O)ccn(CC(F)(F)F)c4=O)sc23)c1O[C@H]1CNCC[C@H]1C [Example 280, 3-((7-(5-Chloro-3-methyl-2-(((3R,4R)-4-methylpiperidin-3-yl)oxy)phenyl)thieno[3,2-b]pyridin-2-yl)methyl)-1-(2,2,2-trifluoroethyl)pyrimidine-2,4(1H,3H)-dione]
< 1000 nM | Cc1cc(Cl)cc(-c2ccnc3cc(CN4C(=O)CCC4=O)sc23)c1O[C@@H]1CNC[C@@H]1C [Example 105, 1-((7-(5-Chloro-3-methyl-2-(((3S,4S)-4-methylpyrrolidin-3-yl)oxy)phenyl)thieno[3,2-b]pyridin-2-yl)methyl)pyrrolidine-2,5-dione]
< 1000 nM | CCN1CC[C@@H](Oc2c(C)cc(Cl)cc2-c2ccnc3cc(CN4C(=O)CCC4=O)sc23)[C@@H](C)C1 [Example 307, 1-[[7-[5-chloro-2-[[(3S,4R)-1-ethyl-3-methyl-4-piperidyl]oxy]-3-methyl-phenyl]thieno[3,2-b]pyridin-2-yl]methyl]pyrrolidine-2,5-dione]
< 1000 nM | N#Cc1cc(Cl)cc(-c2ccnc3cc(CN4C(=O)CCC4=O)sc23)c1O[C@@H]1CNC[C@@H]1F [Example 121, 5-Chloro-3-(2-((2,5-dioxopyrrolidin-1-yl)methyl)thieno[3,2-b]pyridin-7-yl)-2-(((3R,4S)-4-fluoropyrrolidin-3-yl)oxy)benzonitrile]
< 1000 nM | Cc1cc(Cl)cc(-c2ccnc3cc(Cn4c(=O)ccn(CC(F)(F)F)c4=O)sc23)c1OC1CCNCC1C(F)(F)F (stereo not drawn) [Example 272, 3-((7-(5-Chloro-3-methyl-2-((3-(trifluoromethyl)piperidin-4-yl)oxy)phenyl)thieno[3,2-b]pyridin-2-yl)methyl)-1-(2,2,2-trifluoroethyl)pyrimidine-2,4(1H,3H)-dione]
10000 to 30000 nM | CCC(O)c1cc2nccc(-c3cc(Cl)cc(C)c3O[C@H]3CCCN(C)C3)c2s1 (stereo partly drawn) [Example 186, 1-(7-(5-Chloro-3-methyl-2-(((S)-1-methylpiperidin-3-yl)oxy)phenyl)thieno[3,2-b]pyridin-2-yl)propan-1-ol]

same assay, conditions: recombinant full-length USP7 62 pM; ubiquitin-rhodamine 100 nM; 30-minute incubation, 1 hour reaction at room temperature; read-out: Potency (USP7 IC50)

IC50 | Structure (SMILES)
< 1000 nM | Cc1cc(Cl)cc(-c2ccnc3cc(Cn4c(=O)ccn(CC(F)(F)F)c4=O)sc23)c1OC1CCOCC1 [Example 670]

same assay, conditions: recombinant full-length USP7 62 pM; ubiquitin-rhodamine 100 nM; 30-minute pre-incubation, 1 hour reaction at room temperature; read-out: Potency (USP7 IC50)

Structure (SMILES) | IC50
Cc1cc(Cl)cc(-c2ccnc3cc(Cn4c(=O)ccn(C(C)C(F)(F)F)c4=O)sc23)c1O[C@H]1CCCNC1 (stereo partly drawn) [Example 575, 3-[[7-[5-chloro-3-methyl-2-[[(3S)-3-piperidyl]oxy]phenyl]thieno[3,2-b]pyridin-2-yl]methyl]-1-(2,2,2-trifluooro-1-methyl-ethyl)pyrimidine-2,4-dione] | < 1000 nM
Cc1cc(Cl)cc(-c2ccnc3cc(Cn4c(=O)ccn(C)c4=O)sc23)c1OC(C)CN (stereo not drawn) [Example 553, 3-[[7-[2-(2-amino-1-methyl-ethoxy)-5-chloro-3-methyl-phenyl]thieno[3,2-b]pyridin-2-yl]methyl]-1-methyl-pyrimidine-2,4-dione; 2,2,2-trifluoroacetic acid] | < 1000 nM
COC[C@H]1C[C@H](Oc2c(C)cc(Cl)cc2-c2ccnc3cc(Cn4c(=O)ccn(CC(F)(F)F)c4=O)sc23)CN1 [Example 650, 3-[[7-[5-chloro-2-[(3S,5R)-5-(methoxymethyl)pyrrolidin-3-yl]oxy-3-methyl-phenyl]thieno[3,2-b]pyridin-2-yl]methyl]-1-(2,2,2-trifluoroethyl)pyrimidine-2,4-dione] | < 1000 nM
Cc1cc(Cl)cc(-c2ccnc3cc(Cn4c(=O)ccn(CC(F)(F)F)c4=O)sc23)c1OC1(C)CC(N)C1 (stereo not drawn) [Example 640, 3-[[7-[2-(3-amino-1-methyl-cyclobutoxy)-5-chloro-3-methyl-phenyl]thieno[3,2-b]pyridin-2-yl]methyl]-1-(2,2,2-trifluoroethyl)pyrimidine-2,4-dione] | < 1000 nM
Cc1cc(Cl)cc(-c2ccnc3cc(Cn4c(=O)ccn(CC(F)(F)F)c4=O)sc23)c1O[C@H]1CCCN(C(=O)C(F)(F)F)C1 [Example 659, 3-[[7-[5-chloro-3-methyl-2-[[(3S)-1-(2,2,-trifluoroacetyl)-3-piperidyl]oxy]phenyl]thieno[3,2-b]pyridin-2-yl]methyl]-1-(2,2,2-trifluoroethyl)pyrimidine-2,4-dione] | < 1000 nM
Cc1cc(Cl)cc(-c2ncnc3cc(Cn4c(=O)ccn(CC(F)(F)F)c4=O)sc23)c1O[C@@H]1CC[C@@H](N)C1 [Example 603, 3-[[4-[2-[(1R,3R)-3-aminocyclopentoxy]-5-chloro-3-methyl-phenyl]thieno[3,2-d]pyrimidin-6-yl]methyl]-1-(2,2,2-trifluoroethyl)pyrimidine-2,4-dione] | < 1000 nM
Cc1cc(C(F)(F)F)cc(-c2ccnc3cc(Cn4c(=O)[nH]cc(C)c4=O)sc23)c1O[C@@H]1CNC[C@@H]1F [Example 434, 3-[[7-[2-[(3R,4S)-4-fluoropyrrolidin-3-yl]oxy-3-methyl-5-(trifluoromethyl)phenyl]thieno[3,2-b]pyridin-2-yl]methyl]-5-methyl-1H-pyrimidine-2,4-dione] | < 1000 nM

Next, values leading:

IC50 | Structure (SMILES)
< 1000 nM | Cc1cc(Cl)cc(-c2ccnc3cc(Cn4c(=O)ccn(C)c4=O)sc23)c1O[C@@H]1CNC[C@H](F)C1 [Example 497, 3-[[7-[5-chloro-2-[[(3S,5R)-5-fluoro-3-piperidyl]oxy]-3-methyl-phenyl]thieno[3,2-b]pyridin-2-yl]methyl]-1-methyl-pyrimidine-2,4-dione]
< 1000 nM | Cc1cc(Cl)cc(-c2ccnc3cc(Cn4c(=O)c(C)cn(C)c4=O)sc23)c1O[C@@H]1CNC[C@@H]1F [Example 480, 3-[[7-[5-chloro-2-[(3R,4S)-4-fluoropyrrolidin-3-yl]oxy-3-methyl-phenyl]thieno[3,2-b]pyridin-2-yl]methyl]-1,5-dimethyl-pyrimidine-2,4-dione]
